Measurements: patent US20030082112A1, “Composition” (Unilever Home & Personal Care USA, Division of Conopco, Inc., priority 2001, published 2003)

Experiment: Storage stability of the alkyl hydroxybenzoate in the alkaline chalk oral care formulation
Assay type: physicochemical
Details: 37° C. for two months; 1.0 w/w % in fine ground natural chalk formulation of the Example
Protocol: The following formulation is a composition according to the invention and is made by ordinary methods known to a skilled person.
This octyl parahydroxy benzoic acid in this formulation was stable at 37° C. for two months.

For `CCCCCCCCOC(=O)c1ccc(O)cc1` [octyl parahydroxy benzoic acid], which “stability in the formulation” value is on record?
The value was “stable”.
